Results published in US11299485B2, “Thiophene derivative and use thereof” (FUJIMOTO CO., LTD., priority 2018, dated 2022).

How the values were obtained:
Type in all cases: cell-based
Pfeiffer cells = test: Human diffuse large B-cell lymphoma cell line Pfeiffer proliferation suppression test; settings: 144 h, compound 10 μM, 3 days + re-plating with compound 3 days, WST-8, read-out: cell survival rate (% of control) Pfeiffer
Text: Example 52: Human Diffuse Large B-Cell Lymphoma Cell Line Pfeiffer Proliferation Suppression Test
Pfeiffer cells (ATCC, CRL-2632) were suspended in medium B, and diluted as appropriate with 0.4% trypan blue solution (Sigma-Aldrich Co. LLC.). The number of viable cells was counted with a hemocytometer (Funakoshi Co., Ltd.). A cell suspension obtained by diluting with medium B such that the value obtained was 1.3×10^5 cells/mL was dispensed into a Falcon 96 well flat bottom plate (Corning Incorporated) at 75 μL/well, and culture was started at 37° C. under 5% CO2 stream. The next day, a solution obtained by diluting 4 mM DMSO solution of the test compound 100-fold with medium B was added by 25 μL to each well (final concentration of test compound 10 μM). 25 μL of a solution obtained by diluting DMSO 100-fold with medium B was added to the control well. After culturing at 37° C. in a 5% CO2 stream for 3 days, the cell culture medium was uniformly suspended with a multi channel pipette, 14 μL per well was transferred into another new Falcon 96 well flat bottom plate. A solution obtained by diluting 4 mM DMSO solution of the same test compound as the first time 400-fold with medium B was added by 86 μL to a total amount of 100 μL (final concentration of test compound 10 μM). After culturing at 37° C. in a 5% CO2 stream for 3 days, the cell proliferation activity was measured according to the instruction manual attached to WST-8 Kit (KISHIDA CHEMICAL Co., Ltd.).

MM.1S cells = test: Human myeloma cell line MM.1S proliferation suppression test; settings: MM1.S, 72 h, compound 10 μM, 3 days, WST-1 or WST-8, read-out: cell survival rate (% of control) MM.1S
Protocol: Example 51: Human Myeloma Cell Line MM.1S Proliferation Suppression Test
MM.1S cells (ATCC, CRL-2974) were suspended in 10% fetal calf serum (Thermo Fisher Scientific)-containing RPMI1640 medium (ATCC, hereinafter abbreviated as medium B), and diluted as appropriate with 0.4% trypan blue solution (Sigma-Aldrich Co. LLC.). The number of viable cells was counted with a hemocytometer (ERMA INC.). It was diluted with medium B such that the value obtained was 2×10^5 cells/mL. On the other hand, 50 μL of a solution obtained by diluting 4 mM DMSO solution of the test compound 200-fold with medium B was added to each well of a Falcon 96-well flat bottom plate (Corning Incorporated), and the above-mentioned cell suspension was dispensed at 50 μL/well (final concentration of test compound 10 μM). 50 μL of a solution obtained by diluting DMSO 200-fold with medium B was added to the control well. After culturing at 37° C. in a 5% CO2 stream for 3 days, the cell proliferation activity was measured using WST-1 (DOJINDO LABORATORIES) or WST-8 Kit (KISHIDA CHEMICAL Co., Ltd.) and according to each instruction manual attached thereto.

Daudi cells = test: Human Burkitt lymphoma cell line Daudi proliferation suppression test; settings: 72 h, compound 10 μM, 3 days, WST-8, read-out: cell survival rate (% of control) Daudi
Text: Example 54: Human Burkitt Lymphoma Cell Line Daudi Proliferation Suppression Test
Daudi cells (National Institutes of Biomedical Innovation, Health and Nutrition (NIBIOHN), JCRB9071) were suspended in medium B, and diluted as appropriate with 0.4% trypan blue solution (Sigma-Aldrich Co. LLC.). The number of viable cells was counted with a hemocytometer (ERMA INC.). A cell suspension obtained by diluting with medium B such that the value obtained was 1.3×10^5 cells/mL was dispensed into a Falcon 96 well flat bottom plate (Corning Incorporated) at 75 μL/well, and culture was started at 37° C. under 5% CO2 stream. The next day, a solution obtained by diluting 4 mM DMSO solution of the test compound 100-fold with medium B was added by 25 μL to each well (final concentration of test compound 10 μM). 25 μL of a solution obtained by diluting DMSO 100-fold with medium B was added to the control well. After culturing at 37° C. in a 5% CO2 stream for 3 days, the cell proliferation activity was measured according to the instruction manual attached to WST-8 Kit (KISHIDA CHEMICAL Co., Ltd.).

Structure (SMILES) | viability at 10 µM (Pfeiffer cells) [%] | viability at 10 µM (MM.1S cells) [%] | viability at 10 µM (Daudi cells) [%]
COc1c(-c2cn(C3CCC(=O)NC3=O)nn2)csc1C (stereo not drawn) [compound 15, 3-[4-(4-methoxy-5-methylthiophen-3-yl)-1H-1,2,3-triazol-1-yl]piperidine-2,6-dione] | 87 | 55 | 61
COc1sccc1-c1cn(C2CCC(=O)NC2=O)nn1 (stereo not drawn) [compound 18, 3-[4-(2-methoxythiophen-3-yl)-1H-1,2,3-triazol-1-yl]piperidine-2,6-dione] | 70 | 27 | 51
C[C@@H]1CN(Cc2ccc(COc3cscc3-c3cn(C4CCC(=O)NC4=O)nn3)cc2)C[C@H](C)O1 (stereo partly drawn) [compound 38, 3-{4-[4-(4-{[(2S,6R)-2,6-dimethylmorpholino]methyl}benzyloxy)thiophen-3-yl]-1H-1,2,3-triazol-1-yl}piperidine-2,6-dione] | 29 | 24 | 7
Cc1ccc(-c2cn(C3CCC(=O)NC3=O)nn2)s1 (stereo not drawn) [compound 5, 3-[4-(5-methylthiophen-2-yl)-1H-1,2,3-triazol-1-yl]piperidine-2,6-dione] | 98 | 66 | 82
O=C1CCC(n2nnc(-c3ccsc3)c2Cl)C(=O)N1 (stereo not drawn) [compound 4, 3-[5-chloro-4-(thiophen-3-yl)-1H-1,2,3-triazol-1-yl]piperidine-2,6-dione] | 98 | 87 | 82
O=C1CCC(n2cc(-c3cscc3OCC3CC3)nn2)C(=O)N1 (stereo not drawn) [compound 28, 3-{4-[4-(cyclopropylmethoxy)thiophen-3-yl]-1H-1,2,3-triazol-1-yl}piperidine-2,6-dione] | 91 | 68 | 78
Cl.O=C1CCC(n2cc(-c3cscc3OCc3ccc(CCN4CCOCC4)cc3)nn2)C(=O)N1 (stereo not drawn) [compound 45, 3-(4-{4-[4-(2-morpholinoethyl)benzyloxy]thiophen-3-yl}-1H-1,2,3-triazol-1-yl)piperidine-2,6-dione hydrochloride] | 78 | 31 | 40
Cl.O=C1CCC(n2cc(-c3cscc3OCc3ccc(CN4CCCCC4)cc3)nn2)C(=O)N1 (stereo not drawn) [compound 42, 3-(4-{4-[4-(piperidin-1-ylmethyl)benzyloxy]thiophen-3-yl}-1H-1,2,3-triazol-1-yl)piperidine-2,6-dione hydrochloride] | 63 | 27 | 17
O=C1CCC(n2cc(-c3cscc3OCc3ccccc3)nn2)C(=O)N1 (stereo not drawn) [compound 32, 3-{4-[4-(benzyloxy)thiophen-3-yl]-1H-1,2,3-triazol-1-yl}piperidine-2,6-dione] | 60 | 27 | 23
O=C1CCC(n2cc(-c3cscc3OCc3ccccn3)nn2)C(=O)N1 (stereo not drawn) [compound 34, 3-{4-[4-(pyridin-2-ylmethoxy)thiophen-3-yl]-1H-1,2,3-triazol-1-yl}piperidine-2,6-dione] | 104 | 50 | 48
O=C1CCC(n2cc(-c3cscc3OCc3ccccc3CN3CCOCC3)nn2)C(=O)N1 (stereo not drawn) [compound 40, 3-(4-{4-[2-(morpholinomethyl)benzyloxy]thiophen-3-yl}-1H-1,2,3-triazol-1-yl)piperidine-2,6-dione] | 91 | 35 | 46
COC(=O)c1scc(-c2cn(C3CCC(=O)NC3=O)nn2)c1OC (stereo not drawn) [compound 16, methyl 4-[1-(2,6-dioxopiperidin-3-yl)-1H-1,2,3-triazol-4-yl]-3-methoxythiophene-2-carboxylate] | 98 | 85 | 83
CC(Oc1cscc1-c1cn(C2CCC(=O)NC2=O)nn1)c1ccccc1 (stereo not drawn) [compound 44, 3-{4-[4-(1-phenylethoxy)thiophen-3-yl]-1H-1,2,3-triazol-1-yl}piperidine-2,6-dione] | 94 | 33 | 41
O=C1CCC(n2cc(-c3cscc3Cl)nn2)C(=O)N1 (stereo not drawn) [compound 14, 3-[4-(4-chlorothiophen-3-yl)-1H-1,2,3-triazol-1-yl]piperidine-2,6-dione] | 74 | 43 | 49
CC(=O)c1ccc(-c2cn(C3CCC(=O)NC3=O)nn2)s1 (stereo not drawn) [compound 8, 3-[4-(5-acetylthiophen-2-yl)-1H-1,2,3-triazol-1-yl]piperidine-2,6-dione] | 107 | 94 | 93
O=C1CCC(n2cc(-c3cscc3OCc3ccncc3)nn2)C(=O)N1 (stereo not drawn) [compound 33, 3-{4-[4-(pyridin-4-ylmethoxy)thiophen-3-yl]-1H-1,2,3-triazol-1-yl}piperidine-2,6-dione] | 71 | 49 | 27
CCCCOc1cscc1-c1cn(C2CCC(=O)NC2=O)nn1 (stereo not drawn) [compound 25, 3-[4-(4-butoxythiophen-3-yl)-1H-1,2,3-triazol-1-yl]piperidine-2,6-dione] | 84 | 69 | 68
O=C1CCC(n2cc(-c3cscc3OCc3cc4ccccc4s3)nn2)C(=O)N1 (stereo not drawn) [compound 47, 3-{4-[4-(benzo[b]thiophen-2-ylmethoxy)thiophen-3-yl]-1H-1,2,3-triazol-1-yl}piperidine-2,6-dione] | 99 | 64 | 87
O=C1CCC(n2cc(-c3ccc(Cl)s3)nn2)C(=O)N1 (stereo not drawn) [compound 11, 3-[4-(5-chlorothiophen-2-yl)-1H-1,2,3-triazol-1-yl]piperidine-2,6-dione] | 114 | 63 | 94
CCOc1cc(-c2cn(C3CCC(=O)NC3=O)nn2)cs1 (stereo not drawn) [compound 24, 3-[4-(5-ethoxythiophen-3-yl)-1H-1,2,3-triazol-1-yl]piperidine-2,6-dione] | 91 | 63 | 69
O=C1CCC(n2cc(-c3cccs3)nn2)C(=O)N1 (stereo not drawn) [compound 3, 3-[4-(thiophen-2-yl)-1H-1,2,3-triazol-1-yl]piperidine-2,6-dione] | 96 | 59 | 78
Cc1cc(-c2cn(C3CCC(=O)NC3=O)nn2)cs1 (stereo not drawn) [compound 6, 3-[4-(5-methylthiophen-3-yl)-1H-1,2,3-triazol-1-yl]piperidine-2,6-dione] | 100 | 63 | 79
O=C1CCC(n2cc(-c3cscc3OCC3CCCCC3)nn2)C(=O)N1 (stereo not drawn) [compound 30, 3-{4-[4-(cyclohexylmethoxy)thiophen-3-yl]-1H-1,2,3-triazol-1-yl}piperidine-2,6-dione] | 99 | 59 | 76
CCCOc1cscc1-c1cn(C2CCC(=O)NC2=O)nn1 (stereo not drawn) [compound 21, 3-[4-(4-propoxythiophen-3-yl)-1H-1,2,3-triazol-1-yl]piperidine-2,6-dione] | 106 | 75 | 86
